From patent publication US20080070987A1, “META-XYLYLENEDIAMINE VANADATE SALTS” (priority 2006, published 2008)

Tests used:
Human SSAO/VAP-1 = target: T1, Human SSAO/VAP-1 (Homo sapiens, UniProt Q16853); assay: Fluorimetric detection of SSAO-mediated H2O2 formation (Amplex Red), human recombinant VAP-1; assay type: biochemical; details: production of hydrogen peroxide; compounds at 1 mM
T1 sequence (Q16853 1-763): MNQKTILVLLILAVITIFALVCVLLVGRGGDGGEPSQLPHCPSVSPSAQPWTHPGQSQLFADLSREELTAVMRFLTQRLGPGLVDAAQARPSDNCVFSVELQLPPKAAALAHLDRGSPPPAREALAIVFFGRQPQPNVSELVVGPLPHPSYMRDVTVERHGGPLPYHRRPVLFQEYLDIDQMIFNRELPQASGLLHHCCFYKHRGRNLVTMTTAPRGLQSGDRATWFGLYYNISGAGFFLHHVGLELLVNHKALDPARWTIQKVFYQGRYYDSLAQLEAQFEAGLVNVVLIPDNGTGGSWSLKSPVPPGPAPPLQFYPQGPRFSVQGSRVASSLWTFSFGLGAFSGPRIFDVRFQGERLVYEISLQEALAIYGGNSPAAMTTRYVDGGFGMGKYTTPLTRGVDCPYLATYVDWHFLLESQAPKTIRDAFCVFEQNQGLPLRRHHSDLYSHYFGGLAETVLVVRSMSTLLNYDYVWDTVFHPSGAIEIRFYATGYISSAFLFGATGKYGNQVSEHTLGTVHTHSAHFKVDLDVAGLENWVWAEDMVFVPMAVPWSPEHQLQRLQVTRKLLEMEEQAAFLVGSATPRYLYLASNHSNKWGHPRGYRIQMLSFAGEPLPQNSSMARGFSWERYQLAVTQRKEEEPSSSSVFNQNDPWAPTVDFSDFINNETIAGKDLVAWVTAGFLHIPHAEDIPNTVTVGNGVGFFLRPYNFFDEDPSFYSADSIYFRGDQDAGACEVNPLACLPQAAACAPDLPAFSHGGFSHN
Description: (§1) The SSAO activity of human recombinant VAP-1 (0.1 μg prot/assay) and mouse adipose tissue membranes (1 μg prot/assay) was measured using Amplex Red Reagent, a highly sensitive and stable probe for H2O2. The reaction was performed in 200 μL of 0.2 mol/l phosphate buffer at pH 7.4 for 50 min at 37° C. in black non-phosphorescent microplates (Nunc). Catalytic reaction was initiated by the addition of the amines indicated as putative SSAO substrates and H2O2-detecting mixture containing horseradish peroxidase and Amplex Red, as previously described. Fluorescence intensity was measured (excitation, 545 nm, 590 nm, Bio-Tek fluorescence plate reader) and H2O2 concentration was calculated form calibration curves generated by serial dilutions of standard H2O2. Fluorescence readings were performed every 5 min. […] To test amines as putative SSAO inhibitors, they were pre-incubated for 20 min with semicarbazide, and their percentage of inhibition was calculated by referring to SSAO activity produced by benzylamine. The kinetic parameters Km and Vmax were calculated using appropriate non-linear curve-fitting formula based on the Michaelis-Menten equation and using GraphPad Prism 4.0 software.

Mouse SSAO/VAP-1 = target: T2, Mouse SSAO/VAP-1 (Mus musculus, UniProt O70423); assay: Fluorimetric detection of SSAO-mediated H2O2 formation (Amplex Red), mouse adipose tissue membranes; assay type: biochemical; details: production of hydrogen peroxide; compounds at 100 μM
T2 construct: from tissue; host or cells: internal adipose tissue membranes of Swiss mice
T2 sequence (O70423 1-765): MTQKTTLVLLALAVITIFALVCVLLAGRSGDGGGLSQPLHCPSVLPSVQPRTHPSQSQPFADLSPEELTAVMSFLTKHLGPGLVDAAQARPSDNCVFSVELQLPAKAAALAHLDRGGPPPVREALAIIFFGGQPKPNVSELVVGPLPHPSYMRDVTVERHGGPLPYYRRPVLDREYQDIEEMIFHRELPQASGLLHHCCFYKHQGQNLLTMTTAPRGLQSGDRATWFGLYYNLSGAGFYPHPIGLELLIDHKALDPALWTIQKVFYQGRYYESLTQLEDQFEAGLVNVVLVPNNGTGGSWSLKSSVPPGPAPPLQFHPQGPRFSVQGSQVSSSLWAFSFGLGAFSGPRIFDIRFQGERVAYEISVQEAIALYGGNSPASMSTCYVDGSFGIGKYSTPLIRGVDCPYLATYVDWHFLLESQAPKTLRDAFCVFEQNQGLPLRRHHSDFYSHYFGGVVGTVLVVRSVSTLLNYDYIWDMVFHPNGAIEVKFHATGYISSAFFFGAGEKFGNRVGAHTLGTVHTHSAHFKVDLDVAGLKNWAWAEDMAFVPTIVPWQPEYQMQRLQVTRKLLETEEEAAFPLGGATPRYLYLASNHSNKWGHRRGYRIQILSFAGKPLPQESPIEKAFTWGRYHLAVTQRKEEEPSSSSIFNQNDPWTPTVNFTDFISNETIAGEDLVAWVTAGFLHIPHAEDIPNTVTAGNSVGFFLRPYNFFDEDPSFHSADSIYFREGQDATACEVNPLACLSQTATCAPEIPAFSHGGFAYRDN
Description: Internal adipose tissue was obtained from Swiss mice weighing between 20 to […]. […] The lysates were then centrifuged at 5000 g at 4° C. for 15 min to eliminate the fat cake and non-homogenized material, and supernatants were collected and centrifuged at 200000 g for 2 h at 4° C. Pelleted membranes were resuspended in 30 mmol/l HEPES and stored at −80° C. until use. Protein concentrations were measured by the Bradford method with γ-globulin as standard.
as §1

What does the source list for NCc1cccc(CNC(=O)c2ccc(Br)cc2)c1 [Example 12, N-(3-(aminomethyl)benzyl)-4-bromobenzamide]?
Human SSAO/VAP-1 activity % relative to benzylamine (Human SSAO/VAP-1): 16 ± 2%; Mouse SSAO/VAP-1 activity % relative to benzylamine (Mouse SSAO/VAP-1): 46 ± 1%
